Results as given in ChEMBL document CHEMBL5465560, “Selectivity Literature for EUbOPEN Chemogenomic Library” (2024).

Experiments:
[1] = target: T1, Serine/threonine-protein kinase ICK (Homo sapiens) (UniProt Q9UPZ9); test: Selectivity interaction (KinomeScan (DiscoverX)) EUB0001049a ICK; conditions: at 1 µM
T1 sequence (whole entry): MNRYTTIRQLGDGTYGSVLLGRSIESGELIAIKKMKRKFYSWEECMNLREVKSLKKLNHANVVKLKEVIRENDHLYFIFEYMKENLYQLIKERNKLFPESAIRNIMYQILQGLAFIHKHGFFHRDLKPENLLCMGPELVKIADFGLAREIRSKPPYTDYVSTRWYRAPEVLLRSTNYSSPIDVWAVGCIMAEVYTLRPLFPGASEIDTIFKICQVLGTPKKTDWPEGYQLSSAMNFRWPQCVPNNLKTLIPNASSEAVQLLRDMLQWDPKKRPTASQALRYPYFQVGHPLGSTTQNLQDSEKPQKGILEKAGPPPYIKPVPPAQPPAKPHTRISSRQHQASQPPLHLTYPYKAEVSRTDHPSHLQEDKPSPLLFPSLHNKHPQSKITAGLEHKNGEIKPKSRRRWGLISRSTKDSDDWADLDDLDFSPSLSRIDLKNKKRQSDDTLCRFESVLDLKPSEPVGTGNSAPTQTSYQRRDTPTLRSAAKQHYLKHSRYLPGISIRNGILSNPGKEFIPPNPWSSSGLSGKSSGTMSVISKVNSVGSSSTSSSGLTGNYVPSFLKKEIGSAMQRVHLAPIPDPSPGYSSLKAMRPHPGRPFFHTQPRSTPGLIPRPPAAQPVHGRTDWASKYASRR

[2] = target: Maternal embryonic leucine zipper kinase (Homo sapiens) (UniProt Q14680); test: Selectivity interaction (Kinase panel (DSF assay)) EUB0001558a MELK
Chain of Maternal embryonic leucine zipper kinase (Homo sapiens) (Q14680 whole entry, looked up): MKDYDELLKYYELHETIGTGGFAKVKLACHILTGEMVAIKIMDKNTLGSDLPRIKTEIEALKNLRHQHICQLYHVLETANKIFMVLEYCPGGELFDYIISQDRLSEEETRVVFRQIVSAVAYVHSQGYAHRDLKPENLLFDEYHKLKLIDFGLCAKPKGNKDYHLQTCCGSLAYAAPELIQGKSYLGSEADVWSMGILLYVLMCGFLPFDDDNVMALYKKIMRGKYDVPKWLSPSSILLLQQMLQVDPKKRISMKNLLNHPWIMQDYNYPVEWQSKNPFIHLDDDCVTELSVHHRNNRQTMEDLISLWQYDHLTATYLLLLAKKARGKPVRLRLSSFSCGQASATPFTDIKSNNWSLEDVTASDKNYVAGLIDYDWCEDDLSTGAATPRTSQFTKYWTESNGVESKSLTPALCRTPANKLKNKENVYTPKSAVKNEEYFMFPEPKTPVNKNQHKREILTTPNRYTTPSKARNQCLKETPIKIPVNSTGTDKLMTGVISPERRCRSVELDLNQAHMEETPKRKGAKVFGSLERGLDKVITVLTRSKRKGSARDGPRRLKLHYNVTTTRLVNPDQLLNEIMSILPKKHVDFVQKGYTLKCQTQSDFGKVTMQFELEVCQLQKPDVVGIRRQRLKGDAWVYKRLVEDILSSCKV

[3] = target: Vascular endothelial growth factor receptor 1 (Homo sapiens) (UniProt P17948); test: Selectivity interaction (Kinase panel (DSF assay)) EUB0001559a FLT1
[4] = target: Mitogen-activated protein kinase 10 (Homo sapiens, UniProt P53779); test: Selectivity interaction (Ambit KINOMEscan and KiNATiv profiling in Jurkat cells) EUB0000090b MAPK10; format: cell-based; conditions: at 1 µM
[5] = target: T2, Protein kinase C epsilon type (Homo sapiens) (UniProt Q02156); test: Selectivity interaction (KinomeScan (DiscoverX)) EUB0000045b PRKCE
T2 sequence (whole entry): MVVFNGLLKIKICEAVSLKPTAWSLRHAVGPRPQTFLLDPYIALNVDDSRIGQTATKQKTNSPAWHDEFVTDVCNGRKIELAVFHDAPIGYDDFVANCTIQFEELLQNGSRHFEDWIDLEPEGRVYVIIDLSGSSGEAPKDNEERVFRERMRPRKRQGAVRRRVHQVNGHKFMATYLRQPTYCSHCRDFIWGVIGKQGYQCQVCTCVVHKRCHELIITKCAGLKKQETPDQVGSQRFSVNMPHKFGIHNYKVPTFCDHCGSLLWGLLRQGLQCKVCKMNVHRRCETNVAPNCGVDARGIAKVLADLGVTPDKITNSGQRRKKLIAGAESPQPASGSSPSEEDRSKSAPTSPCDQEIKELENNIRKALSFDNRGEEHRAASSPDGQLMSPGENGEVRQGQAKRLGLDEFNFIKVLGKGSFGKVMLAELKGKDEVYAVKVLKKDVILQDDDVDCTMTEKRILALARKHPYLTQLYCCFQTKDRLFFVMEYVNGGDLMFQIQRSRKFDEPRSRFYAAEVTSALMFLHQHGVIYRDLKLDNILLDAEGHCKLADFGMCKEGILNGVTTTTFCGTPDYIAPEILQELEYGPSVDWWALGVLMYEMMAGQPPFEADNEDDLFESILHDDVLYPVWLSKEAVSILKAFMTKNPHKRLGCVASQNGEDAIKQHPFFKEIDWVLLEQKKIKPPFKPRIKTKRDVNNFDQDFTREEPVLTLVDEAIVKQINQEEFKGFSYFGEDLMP

[6] = target: T3, Eukaryotic elongation factor 2 kinase (Homo sapiens) (UniProt O00418); test: Selectivity interaction (Upstate Kinase Profiler service (Millipore)) EUB0000056c EEF2K; conditions: at 1 µM
T3 sequence (whole entry): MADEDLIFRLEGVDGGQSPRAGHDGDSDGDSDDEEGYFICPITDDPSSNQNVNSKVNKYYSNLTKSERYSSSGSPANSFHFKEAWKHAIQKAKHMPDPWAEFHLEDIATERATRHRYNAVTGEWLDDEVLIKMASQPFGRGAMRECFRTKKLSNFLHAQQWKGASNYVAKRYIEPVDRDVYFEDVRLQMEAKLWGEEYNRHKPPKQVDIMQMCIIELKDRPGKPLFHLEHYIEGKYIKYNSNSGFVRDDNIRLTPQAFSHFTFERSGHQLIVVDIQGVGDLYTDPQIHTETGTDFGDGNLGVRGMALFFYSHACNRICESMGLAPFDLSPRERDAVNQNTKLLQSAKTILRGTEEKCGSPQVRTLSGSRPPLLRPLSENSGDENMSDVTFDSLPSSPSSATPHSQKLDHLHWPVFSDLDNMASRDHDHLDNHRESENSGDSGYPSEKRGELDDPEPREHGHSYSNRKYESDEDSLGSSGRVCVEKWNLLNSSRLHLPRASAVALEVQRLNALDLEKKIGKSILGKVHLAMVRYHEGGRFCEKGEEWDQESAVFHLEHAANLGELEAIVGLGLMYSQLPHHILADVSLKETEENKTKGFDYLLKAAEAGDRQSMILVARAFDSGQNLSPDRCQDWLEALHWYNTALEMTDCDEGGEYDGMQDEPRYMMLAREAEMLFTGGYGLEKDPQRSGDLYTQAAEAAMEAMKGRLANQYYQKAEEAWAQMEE

[7] = target: Serine/threonine-protein kinase MARK2 (Homo sapiens) (UniProt Q7KZI7); test: Selectivity interaction (KinomeScan (DiscoverX)) EUB0000655a MARK2; conditions: at 10 µM
[8] = target: Microtubule-associated serine/threonine-protein kinase 1 (Homo sapiens) (UniProt Q9Y2H9); test: Selectivity interaction (KinomeScan (DiscoverX)) EUB0000695a MAST1; conditions: at 100 nM
Chain of Microtubule-associated serine/threonine-protein kinase 1 (Homo sapiens) (Q9Y2H9 whole entry, looked up): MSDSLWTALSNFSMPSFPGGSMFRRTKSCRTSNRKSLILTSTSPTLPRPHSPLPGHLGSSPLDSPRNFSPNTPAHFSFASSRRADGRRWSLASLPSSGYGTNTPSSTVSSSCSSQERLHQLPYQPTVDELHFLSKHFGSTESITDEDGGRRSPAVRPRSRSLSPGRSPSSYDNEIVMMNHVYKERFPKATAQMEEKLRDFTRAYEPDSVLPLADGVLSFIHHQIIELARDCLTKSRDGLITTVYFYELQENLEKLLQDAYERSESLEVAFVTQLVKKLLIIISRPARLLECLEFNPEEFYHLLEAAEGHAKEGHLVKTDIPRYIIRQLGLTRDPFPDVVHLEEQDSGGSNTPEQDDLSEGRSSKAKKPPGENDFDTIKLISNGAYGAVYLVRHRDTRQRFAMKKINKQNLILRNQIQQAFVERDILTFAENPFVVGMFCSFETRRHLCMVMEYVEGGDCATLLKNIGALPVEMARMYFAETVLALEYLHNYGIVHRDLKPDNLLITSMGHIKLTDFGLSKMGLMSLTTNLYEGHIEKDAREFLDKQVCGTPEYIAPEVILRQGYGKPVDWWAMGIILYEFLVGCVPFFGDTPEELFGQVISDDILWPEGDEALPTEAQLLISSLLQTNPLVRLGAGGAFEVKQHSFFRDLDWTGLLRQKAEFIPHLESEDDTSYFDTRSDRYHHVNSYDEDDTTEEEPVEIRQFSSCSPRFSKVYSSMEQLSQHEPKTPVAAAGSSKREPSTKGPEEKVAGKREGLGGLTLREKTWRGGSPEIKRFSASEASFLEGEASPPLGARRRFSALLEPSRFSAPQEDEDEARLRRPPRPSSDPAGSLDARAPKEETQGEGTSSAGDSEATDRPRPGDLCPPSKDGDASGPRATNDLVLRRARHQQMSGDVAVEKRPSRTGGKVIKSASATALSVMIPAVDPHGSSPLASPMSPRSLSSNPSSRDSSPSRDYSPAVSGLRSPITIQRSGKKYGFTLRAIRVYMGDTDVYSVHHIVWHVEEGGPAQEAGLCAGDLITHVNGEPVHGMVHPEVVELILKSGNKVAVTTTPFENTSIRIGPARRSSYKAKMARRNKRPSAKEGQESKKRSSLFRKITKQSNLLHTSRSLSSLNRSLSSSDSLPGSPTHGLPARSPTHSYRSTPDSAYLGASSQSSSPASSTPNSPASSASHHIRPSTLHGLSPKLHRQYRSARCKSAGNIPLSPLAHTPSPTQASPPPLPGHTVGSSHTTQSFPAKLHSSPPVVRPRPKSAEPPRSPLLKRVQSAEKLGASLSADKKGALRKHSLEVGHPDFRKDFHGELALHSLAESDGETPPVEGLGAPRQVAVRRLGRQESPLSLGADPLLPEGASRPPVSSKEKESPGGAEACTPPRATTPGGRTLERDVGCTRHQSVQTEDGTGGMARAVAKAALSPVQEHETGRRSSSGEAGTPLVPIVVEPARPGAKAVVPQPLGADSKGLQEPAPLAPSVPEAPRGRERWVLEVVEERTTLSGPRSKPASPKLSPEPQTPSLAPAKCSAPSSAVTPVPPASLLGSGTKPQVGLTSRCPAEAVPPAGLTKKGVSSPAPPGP

[9] = target: Tyrosine-protein kinase Fer (Homo sapiens) (UniProt P16591); test: Selectivity interaction (Kinase panel (Z-LYTE Assay)) EUB0001632a FER; conditions: at 10 µM
Chain of Tyrosine-protein kinase Fer (Homo sapiens) (P16591 whole entry, looked up): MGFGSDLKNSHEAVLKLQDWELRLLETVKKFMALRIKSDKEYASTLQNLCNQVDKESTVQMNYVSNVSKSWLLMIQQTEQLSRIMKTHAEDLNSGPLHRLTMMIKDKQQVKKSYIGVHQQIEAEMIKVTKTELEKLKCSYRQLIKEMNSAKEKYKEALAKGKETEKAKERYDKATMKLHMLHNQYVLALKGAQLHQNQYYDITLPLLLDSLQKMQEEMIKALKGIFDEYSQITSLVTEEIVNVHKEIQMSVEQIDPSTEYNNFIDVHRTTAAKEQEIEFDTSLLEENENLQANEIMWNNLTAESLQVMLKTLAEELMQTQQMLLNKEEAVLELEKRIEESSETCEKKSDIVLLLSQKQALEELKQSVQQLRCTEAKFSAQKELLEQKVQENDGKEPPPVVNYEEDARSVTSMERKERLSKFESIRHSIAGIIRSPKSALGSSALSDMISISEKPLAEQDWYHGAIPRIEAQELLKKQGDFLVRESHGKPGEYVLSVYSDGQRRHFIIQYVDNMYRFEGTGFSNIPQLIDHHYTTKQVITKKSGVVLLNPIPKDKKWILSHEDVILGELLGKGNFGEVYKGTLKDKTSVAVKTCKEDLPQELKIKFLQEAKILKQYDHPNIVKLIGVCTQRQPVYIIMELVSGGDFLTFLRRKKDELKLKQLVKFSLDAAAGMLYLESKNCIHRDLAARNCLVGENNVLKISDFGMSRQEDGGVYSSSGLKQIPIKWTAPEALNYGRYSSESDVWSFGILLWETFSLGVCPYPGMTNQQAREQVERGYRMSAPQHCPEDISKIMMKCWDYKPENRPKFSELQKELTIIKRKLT

[10] = target: Mast/stem cell growth factor receptor Kit (Homo sapiens, UniProt P10721); test: (§1) Selectivity interaction (Kinase panel (Z-LYTE Assay)) EUB0001632a KIT; conditions: at 10 µM
[11] = tested on: Mast/stem cell growth factor receptor Kit (Homo sapiens), P10721 [V559D,V654A]; test: as §1; conditions: at 10 µM
[12] = tested on: Mast/stem cell growth factor receptor Kit (Homo sapiens), P10721 [V559D]; test: as §1; conditions: at 10 µM
[13] = tested on: Mast/stem cell growth factor receptor Kit (Homo sapiens), P10721 [V560G]; test: as §1; conditions: at 10 µM
Chain of Mast/stem cell growth factor receptor Kit (Homo sapiens), P10721 [V560G] (P10721 whole entry V560G): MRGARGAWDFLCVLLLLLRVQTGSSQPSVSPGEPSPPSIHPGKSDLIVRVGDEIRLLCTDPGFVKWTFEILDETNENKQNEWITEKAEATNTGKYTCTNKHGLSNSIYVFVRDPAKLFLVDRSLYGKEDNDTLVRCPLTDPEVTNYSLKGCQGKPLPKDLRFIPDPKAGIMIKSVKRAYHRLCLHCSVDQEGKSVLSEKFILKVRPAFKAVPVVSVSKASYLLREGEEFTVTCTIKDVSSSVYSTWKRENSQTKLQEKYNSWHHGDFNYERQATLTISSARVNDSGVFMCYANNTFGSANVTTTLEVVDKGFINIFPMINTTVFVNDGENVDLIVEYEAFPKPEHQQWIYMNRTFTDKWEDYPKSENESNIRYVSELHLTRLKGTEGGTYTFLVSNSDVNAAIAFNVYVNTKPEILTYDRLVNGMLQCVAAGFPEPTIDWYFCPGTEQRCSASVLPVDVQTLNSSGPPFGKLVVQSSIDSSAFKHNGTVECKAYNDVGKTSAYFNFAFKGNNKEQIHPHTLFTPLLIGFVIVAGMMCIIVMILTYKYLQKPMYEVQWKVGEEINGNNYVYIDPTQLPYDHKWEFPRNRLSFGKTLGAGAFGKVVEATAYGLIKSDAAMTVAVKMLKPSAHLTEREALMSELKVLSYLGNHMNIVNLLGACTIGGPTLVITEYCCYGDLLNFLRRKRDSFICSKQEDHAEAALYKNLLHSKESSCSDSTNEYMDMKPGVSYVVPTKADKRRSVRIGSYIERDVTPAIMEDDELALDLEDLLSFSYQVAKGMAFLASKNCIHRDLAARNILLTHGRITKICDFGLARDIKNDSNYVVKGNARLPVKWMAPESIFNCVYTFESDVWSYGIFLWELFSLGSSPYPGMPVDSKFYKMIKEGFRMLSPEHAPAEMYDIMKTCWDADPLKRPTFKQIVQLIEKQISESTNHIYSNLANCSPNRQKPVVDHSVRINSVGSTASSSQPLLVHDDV

[14] = tested on: Mast/stem cell growth factor receptor Kit (Homo sapiens), P10721 [T670I]; test: as §1; conditions: at 10 µM
Chain of Mast/stem cell growth factor receptor Kit (Homo sapiens), P10721 [T670I] (P10721 whole entry T670I): as the sequence (P10721 whole entry V560G) above, with G560V, T670I counted along it

COc1cc(Nc2nc(C)cc(-c3cnn4nc(OC)ccc34)n2)cc(C(F)(F)F)c1
% of control [1]: 85%

CC(C)(O)[C@H](F)CN1Cc2cc(NC(=O)c3cnn4cccnc34)c(N3CCOCC3)cc2C1=O
dTM [2]: 0.9 K

CN(C(=O)c1cnn2cccnc12)c1cc2c(cc1N1CCOCC1)C(=O)N(C[C@@H](F)C(C)(C)O)C2
dTM [3]: -0.1 K

CN(C)C/C=C/C(=O)Nc1ccc(C(=O)N2CCCC(Nc3ncc(Cl)c(-c4c[nH]c5ccccc45)n3)C2)cc1 (stereo not given)
% of control [4]: 1%

C=CC(=O)Nc1cc(-n2c(=O)ccc3cnc4ccc(-c5ccc(NS(C)(=O)=O)cc5)cc4c32)ccc1C
% of control ([5]; at 1 µM): 100% | % of control ([5]; at 10 µM): 75%

Cc1ccc(-c2ccc3c(ccc4sc5c(c43)NC[C@@H](C)NC5=O)n2)cn1
% of inhibition [6]: -6%

CN(C)CCOc1ccc(-c2nc(-c3ccncc3)c(-c3ccc4c(c3)CC/C4=N\O)[nH]2)cc1
% of control [7]: 100%

Cc1cc(F)c(C(=O)Nc2cccc(-c3nncn3C(C)C)n2)cc1-n1cnc(C2CC2)c1
% of control [8]: 87%

Cn1cc(-n2cnc3c(NCc4nc5cc(Cl)c(Cl)cc5[nH]4)nc(N4CCOCC4)nc32)cn1
% of control [9]: 3.17% | % of control [10]: 7.07% | % of control [11]: 0.874% | % of control [12]: 6.85% | % of control [13]: 1.94% | % of control [14]: 0.683%
